{"source": "patent EP4729529A1", "about": "“PREPARATION OF PEPTIDE INHIBITOR OF INTERLEUKIN-23 RECEPTOR AND USE THEREOF” (Xizang Haisco Pharmaceutical Co., Ltd., priority 2023, dated 2024)", "key": {"IL-23α/IL-12β and IL-23R": {"biological_target": "T1, IL-23α/IL-12β and IL-23R (Homo sapiens, UniProt Q5VWK5)", "T1 construct": "purchased ACRO ILR-H82F3 (IL-23R); ILB-H52W5 (IL-23α/IL-12β)", "T1 sequence (Q5VWK5 24-353 limits assumed)": "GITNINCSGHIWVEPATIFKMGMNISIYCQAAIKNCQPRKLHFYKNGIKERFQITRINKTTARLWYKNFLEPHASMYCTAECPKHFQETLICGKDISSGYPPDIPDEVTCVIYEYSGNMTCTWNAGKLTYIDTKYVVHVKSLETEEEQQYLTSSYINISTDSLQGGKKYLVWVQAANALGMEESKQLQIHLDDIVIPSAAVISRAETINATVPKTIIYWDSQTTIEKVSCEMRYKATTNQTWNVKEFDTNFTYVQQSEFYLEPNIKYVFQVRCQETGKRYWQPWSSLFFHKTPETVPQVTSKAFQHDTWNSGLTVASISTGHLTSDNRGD", "experiment": "IL-23α/IL-12β and IL-23R binding assay (TR-FRET/HTRF)", "details": "inhibition of the binding of IL-23α/IL-12β to IL-23R, TR-FRET; both proteins 0.3 nM", "summary_of_the_method": "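TR-FRET with IL-23α/IL-12β and IL-23R each at 0.3 nM in PPI buffer; compound preincubated with IL-23α/IL-12β 60 min at 25°C, then IL-23R and Tb/d2 detection reagents added for 60 min. HTRF 665/620 ratio; IC50 by nonlinear regression.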"}, "[1]": {"experiment": "Test of stability in plasma, human", "format": "in vitro ADME", "details": "read-out: Residual rate% at 37°C for 6 h", "protocol": "(§1) 5. Test of stability in plasma\n(§2) In this experiment, plasmas of five species, including human, monkey, dog, rat, and mouse, were used to evaluate the stability in plasma of Compound 7.\n(§3) A plasma sample was prepared at a concentration level of 1000 ng/mL, and dispensed into EP tubes at time points 0 h and 6 h. Acetonitrile solution containing an internal standard was added directly to the 0 h sample; and the 6 h sample was placed at 37°C for the corresponding time, and then added with an acetonitrile solution containing internal standard. The concentration of the test compound in the sample was measured by the LC-MS/MS method, and the residual rate was calculated from the ratio of the peak areas of the test compound to the internal standard in the time point sample and the 0 h sample.\n(§4) Experimental results: At the concentration level of 1000 ng/mL under the test conditions, the residual rates of the test Compounds were shown in Table 6 below. Table 6. Residual rate% at 37°C for 6 h"}, "[2]": {"experiment": "Test of stability in plasma, rat", "format": "in vitro ADME", "details": "read-out: Residual rate% at 37°C for 6 h", "protocol": "as §1, §2, §3, §4"}, "[3]": {"experiment": "Test of stability in plasma, mouse", "format": "in vitro ADME", "details": "read-out: Residual rate% at 37°C for 6 h", "protocol": "as §1, §2, §3, §4"}, "[4]": {"experiment": "Test of stability in gastrointestinal fluid: simulated gastric fluid (pepsin)", "format": "in vitro ADME", "details": "0.5 mg/ml, 37°C", "protocol": "6. Test of stability in gastrointestinal fluid\n1.1. Preparation of dilute hydrochloric acid: 23.4 ml of hydrochloric acid was diluted with water to 1000 ml.\n1.2. Preparation of simulated gastric fluid: 1.64 ml of dilute hydrochloric acid and 1 g of pepsin were added to about 80 ml of water. After being shaken well, the mixture was diluted with water to 100 ml.\nAbout 12.5 mg of the sample was added to a 25 ml volumetric flask and dissolved in the simulated gastric fluid (or simulated intestinal fluid), and the mixture was diluted to the mark.\nInstrument model: Agilent 1260 Infinity; mobile phase A: 10 mmol/L K2HPO4, and mobile phase B: acetonitrile; column: Phenomenex Gemini^@ 3 um C18 110Å 150 * 4.6 mm; wavelength: 224 nm; column temperature: 30°C; sample tray temperature: 37°C; injection time: 35 min; injection volume: 10 ul; injection mode: gradient injection; and gradient method. Table 7. Gradient mobile phase\nSampling and testing: Firstly, the blank solution (simulated gastric fluid or simulated intestinal fluid) was tested. Then, the prepared sample (newly prepared for use) was placed in the injection tray for immediate injection. Then, a needle of sample was injected at 4.5 h, 9.5 h, and 18 h, respectively.\nTable 8. Stability in gastrointestinal fluid"}}, "note": "Positions of bridges follow the written chain, without caps; N, C: chain ends. Non-standard residues stand in square brackets, D forms with d. Residues, ends and D or L forms follow the SMILES beside them. Phe(4-OC2H4NH2,2,3-(CH2)3) = NCCOc1ccc(C[C@H](N)C(=O)O)c2c1CCC2; Trp(7-Me) = Cc1cccc2c(C[C@H](N)C(=O)O)c[nH]c12; 2Nal = N[C@@H](Cc1ccc2ccccc2c1)C(=O)O; 3Pal = N[C@@H](Cc1cccnc1)C(=O)O; Pen = CC(C)(S)[C@H](N)C(=O)O; Thp = NC1(C(=O)O)CCOCC1; Sar = CNCC(=O)O", "data": [{"smiles": "CC(=O)NCCCC[C@@H]1NC(=O)[C@H](Cc2c[nH]c3c(C)cccc23)NC(=O)[C@H]([C@@H](C)O)NC(=O)[C@H](Cc2c[nH]cn2)NC(=O)[C@@H](NC(C)=O)C(C)(C)SSC(C)(C)[C@@H](C(=O)N[C@@H](Cc2ccc(OCCN)c3c2CCC3)C(=O)N[C@@H](Cc2ccc3ccccc3c2)C(=O)NC2(C(=O)N[C@@H](CCC(=O)O)C(=O)N[C@@H](CC(N)=O)C(=O)N[C@@H](Cc3cccnc3)C(=O)N(C)CC(N)=O)CCOCC2)NC1=O", "note": "[Compound 7] (Ac-[Pen]HT[Trp(7-Me)]K(Ac)[Pen][Phe(4-OC2H4NH2,2,3-(CH2)3)][2Nal][Thp]EN[3Pal][Sar]-NH2; disulfide 1-6)", "values": [{"measurement": "IC50", "setting": "IL-23α/IL-12β and IL-23R", "result": 0.0539, "unit": "nM"}, {"measurement": "remaining at 6 h, 1000 ng/mL", "setting": "[1]", "result": "> 99", "unit": "%"}, {"measurement": "remaining at 6 h, 1000 ng/mL", "setting": "[2]", "result": 98.3, "unit": "%"}, {"measurement": "remaining at 6 h, 1000 ng/mL", "setting": "[3]", "result": "> 99", "unit": "%"}, {"measurement": "Peak area%", "setting": "[4]; 0 h", "result": 95.281, "unit": "%"}, {"measurement": "Peak area%", "setting": "[4]; 4.5 h", "result": 94.678, "unit": "%"}, {"measurement": "Peak area%", "setting": "[4]; 9.5 h", "result": 96.304, "unit": "%"}, {"measurement": "Peak area%", "setting": "[4]; 18 h", "result": 93.661, "unit": "%"}]}]}
